Experiments:
[1] = test system: Rhizoctonia solani; details: 168 h, read-out: control
Description: Rhizoctonia solani (Rice sheath blight/Potato black scurf): Compounds were dissolved in 0.3% DMSO & then added to Potato Dextrose Agar medium just prior to dispensing it into Petri dishes. 5 ml medium with compound in the desired concentration was dispensed into 60 mm sterile Petri-plates. After solidification each plate was seeded with 5 mm size mycelial disc taken form periphery of actively growing virulent culture plate. Plates were incubated in growth chambers at 25° C. temperature & 60% Relative Humidity for seven days and radial growth was measured.

[2] = test system: Pyricularia oryzae; assay: microbe, parasite or virus in culture; assay type: cell-based; details: 168 h, read-out: control
[3] = test system: Colletotrichum capsici; assay: Colletotrichum capsici (anthracnose) in vitro test, radial growth on Potato Dextrose Agar; details: Colletotrichum truncatum, 168 h, read-out: control
Description: Colletotrichum capsici (anthracnose): Compounds were dissolved in 0.3% DMSO & then added to Potato Dextrose Agar medium just prior to dispensing it into Petri dishes. 5 ml medium with compound in the desired concentration was dispensed into 60 mm sterile petri-plates. After solidification each plate was seeded with 5 mm size mycelial disc taken form periphery of actively growing virulent culture plate. Plates were incubated in growth chambers at 25° C. temperature & 60% Relative Humidity for seven days and radial growth was measured.

[4] = test system: Septoria lycopersici; assay: Septoria lycopersici (Leaf spot of tomato) in vitro test, radial growth on Potato Dextrose Agar; details: 168 h, read-out: control
Description: Septoria lycopersici (Leaf spot of tomato): Compounds were dissolved in 0.3% DMSO & then added to Potato Dextrose Agar medium just prior to dispensing it into Petri dishes. 5 ml medium with compound in the desired concentration was dispensed into 60 mm sterile petri-plates. After solidification each plate was seeded with 5 mm size mycelial disc taken form periphery of actively growing virulent culture plate. Plates were incubated in growth chambers at 25° C. temperature & 70% Relative Humidity for seven days and radial growth was measured.

[5] = test system: Phakopsora pachyrhizi; assay: Phakopsora pachyrhizi test in soybean (in vivo on plants), preventive activity; details: preventive spray on soybean plants, inoculated one day after treatment, disease severity rated vs untreated check
Description: Example 8 (In Vivo on Plants): Phakopsora pachyrhizi Test in Soybean
Compounds were dissolved in 2% DMSO/Acetone & then mixed with water to the calibrated spray volume of 50 ml and poured into the spray bottles for further applications.
To test the preventive activity of compounds, healthy young soybean plants raised in the greenhouse were sprayed with active compound preparation at the stated application rates inside the spray cabinets using hallowcone nozzles. One day after treatment, the plants were inoculated with spore suspension containing 2.1×10^6 Phakopsora pachyrhizi inoculum. The inoculated plants were then kept in greenhouse chamber at 25° C. temperature & 90% Relative Humidity for disease expression.
A visual assessment of compound's performance was carried out by rating the disease severity (0-100% scale) on treated plants on 3, 7, 10 & 15 days after application. Efficacy (% control) of the compounds was calculated by comparing the disease rating in the treatment with the one of the untreated control. The sprayed plants were also assessed for compound's plant compatibility by recording symptoms like necrosis, chlorosis & stunting.

[6] = test system: Fusarium culmorum; assay: Fusarium culmorum (Foot rot of cereals) in vitro test, radial growth on Potato Dextrose Agar; assay type: cell-based; details: 168 h, read-out: control
[7] = test system: Alternaria solani; assay: Alternaria solani (early blight of tomato/potato) in vitro test, radial growth on Potato Dextrose Agar; details: 168 h, read-out: control
Description: (§1) Compounds of present invention were assessed for activity against one or more of the following: Biological Test Examples, in vitro test

[8] = test system: Botrytis cinerea; assay: Botrytis cinerea (Gray mold) in vitro test, radial growth on Potato Dextrose Agar; details: 168 h, read-out: control
Description: as §1
Botrytis cinerea (Gray mold): Compounds were dissolved in 0.3% DMSO & then added to Potato Dextrose Agar medium just prior to dispensing it into Petri dishes. 5 ml medium with compound in the desired concentration was dispensed into 60 mm sterile Petri-plates. After solidification each plate was seeded with 5 mm size mycelial disc taken form periphery of actively growing virulent culture plate. Plates were incubated in growth chambers at 22° C. temperature & 90% Relative Humidity for seven days and radial growth was measured.

Row | Compound | inhibition of growth at 300 ppm [1] [%] | inhibition of growth at 300 ppm [2] [%] | inhibition of growth at 300 ppm [3] [%] | inhibition of growth at 300 ppm [4] [%] | pest or weed control at 500 ppm [5] [%] | inhibition of growth at 300 ppm [6] [%] | inhibition of growth at 300 ppm [7] [%] | inhibition of growth at 300 ppm [8] [%]
1 | CCN(C)C=Nc1cc(C)c(C(=O)COc2cccc(C)c2)cc1C [Compound 12, N′-(2,5-dimethyl-4-(2-(m-tolyloxy)acetyl)phenyl)-N-ethyl-N-methylformimidamide] | > 70 | > 70 | > 70 | > 70 | > 90 | 70 | > 70 | > 70
2 | CCN(C)C=Nc1cc(C)c(C(=O)COc2ccccc2)cc1C [Compound 2, N′-(2,5-dimethyl-4-(2-phenoxyacetyl)phenyl)-N-ethyl-N-methylformimidamide] | > 70 | > 70 | > 70 | > 70 | > 90 | 70 | > 70 | > 70
3 | CCN(C)C=Nc1cc(C)c(C(=O)COc2c(C)cccc2Br)cc1C [Compound 88, N′-(4-(2-(2-bromo-6-methylphenoxy)acetyl)-2,5-dimethylphenyl)-N-ethyl-N-methylformimidamide] | > 70 | > 70 | > 70 | > 70 | – | 70 | > 70 | > 70
4 | CCN(C)C=Nc1cc(C)c(C(=O)CSc2c(F)cccc2F)cc1C [Compound 103, N′-(4-(2-((2,6-difluorophenyl)thio)acetyl)-2,5-dimethylphenyl)-N-ethyl-N-methylformimidamide] | > 70 | > 70 | > 70 | > 70 | – | 70 | > 70 | > 70
5 | CCN(C)C=Nc1cc(C)c(C(=O)CSc2ccc(F)cc2F)cc1C [Compound 102, N′-(4-(2-((2,4-difluorophenyl)thio)acetyl)-2,5-dimethylphenyl)-N-ethyl-N-methylformimidamide] | > 70 | > 70 | > 70 | > 70 | – | 70 | > 70 | > 70
6 | CCN(C)C=Nc1cc(C)c(C(=O)CSc2ccc(F)cc2)cc1C [Compound 28, N-ethyl-N′-(4-(2-((4-fluorophenyl)thio)acetyl)-2,5-dimethylphenyl)-N-methylformimidamide] | > 70 | > 70 | > 70 | > 70 | – | 70 | > 70 | > 70
7 | CCN(C)C=Nc1cc(C)c(C(=O)CSc2ccc(C)c(C)c2)cc1C [Compound 11, N′-(4-(2-((3,4-dimethylphenyl)thio)acetyl)-2,5-dimethylphenyl)-N-ethyl-N-methylformimidamide] | > 70 | > 70 | > 70 | > 70 | > 90 | 70 | > 70 | > 70
8 | CCN(C)C=Nc1cc(C)c(C(=O)COc2cccc(Cl)c2)cc1C [Compound 13, N′-(4-(2-(3-chlorophenoxy)acetyl)-2,5-dimethylphenyl)-N-ethyl-N-methylformimidamide] | > 70 | > 70 | > 70 | > 70 | > 90 | 70 | > 70 | > 70

Source: patent publication US11524934B2, “Phenylamine compounds” (PI INDUSTRIES LTD., priority 2017, dated 2022)
